Two compounds from patent US4372964A, “Antiinflammatory 4,5-diaryl-1H-imidazole-2-methanols” (E. I. Du Pont de Nemours and Company, priority 1981, dated 1983) can be followed below.

In assay [1] the test system is adjuvant-induced arthritis in rats. Kind of assay: Established Adjuvant-Induced Arthritis in Rats. It counts as in vivo, Lewis (Wistar) male rats. The conditions noted are these: Rattus norvegicus.
Assay [2] relates to phenylquinone writhing in mice. Kind of assay: Phenylquinone Writhing Test. The class given is in vivo, female white mice. The conditions noted are these: Mus musculus, Table 3, Formula I, oral, observed from 30 minutes after dosing for 10 minutes. On the procedure: Aqueous (0.10% phenyl-p-benzoquinone) phenylquinone was injected intraperitoneally at 24 minutes later using 0.20 ml per mouse.

SMILES strings stand for the structures.

Turning to `CCOC(=O)OC(c1nc(-c2ccc(OC)cc2)c(-c2ccc(OC)cc2)n1C)(C(F)(F)F)C(F)(F)F` [Example 6, 4,5-Bis(4-methoxyphenyl)-1-methyl-α,α-di(trifluoromethyl)-1H-imidazole-2-methanol, Ethylcarbonate], in assay [1] (168 h, Table 3, dose 45 mg/kg, oral once daily 7 days, read-out: Adjuvant Arthritis, percent reduction in paw volume at the indicated dose), the inhibition in vivo at 45 mg/kg came out at 17%. Besides, in assay [2], the 50% effective dose (ED50) was above 108 mg/kg.
Consider `COc1ccc(-c2nc(C(O)(C(F)F)C(F)(F)F)[nH]c2-c2ccc(OC)cc2)cc1` (stereo not drawn) [Example 15, 4,5-bis(4-methoxyphenyl)-α-difluoromethyl-α-trifluoromethyl-1H-imidazole-2-methanol], for which the median effective dose (ED50) in assay [1] (Table 3, Formula I, oral once daily 7 days (days 14-20), decrease from control paw volume, day 21) is 3 mg/kg; in assay [2], 1.4 mg/kg.
